Assay results: ChEMBL document CHEMBL1201862, “PubChem BioAssay data set” (2004)
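How tested: cells in 96-well plates exposed to compound for 48 hours at five concentrations. The concentration for 50% growth inhibition is given as GI50.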 Active and inactive are the calls of the source. Cut-off read from the data, not from the text of the source: active = GI50 up to about 1.1 µM and inactive = higher. Residues, ends and D or L forms follow the SMILES beside them. *: point of attachment. Pentanoyl = CCCCC(=O)*; Boc = CC(C)(C)OC(=O)*

How the values were obtained:
Experiment in all cases: DTP human tumour cell line panel, 48 h
ACHN = system: ACHN
CCRF-CEM = system: CCRF-CEM
HCT-15 = system: HCT-15
HL-60 = system: HL-60
IGROV-1 = system: IGROV-1
LOX IMVI = system: LOX IMVI
MDA-N = system: MDA-N
MOLT-4 = system: MOLT-4
NCI-H23 = system: NCI-H23
NCI/ADR-RES = system: NCI/ADR-RES
OVCAR-8 = system: OVCAR-8
PC-3 = system: PC-3
RPMI-8226 = system: RPMI-8226
SK-MEL-5 = system: SK-MEL-5
SK-OV-3 = system: SK-OV-3
SN12C = system: SN12C
SNB-75 = system: SNB-75
T47D = system: T47D
U-251 = system: U-251
UACC-257 = system: UACC-257

Row | SMILES | GI50 (ACHN) | GI50 (CCRF-CEM) | GI50 (HCT-15) | GI50 (HL-60) | GI50 (IGROV-1) | GI50 (LOX IMVI) | GI50 (MDA-N) | GI50 (MOLT-4) | GI50 (NCI-H23) | GI50 (NCI/ADR-RES) | GI50 (OVCAR-8) | GI50 (PC-3) | GI50 (RPMI-8226) | GI50 (SK-MEL-5) | GI50 (SK-OV-3) | GI50 (SN12C) | GI50 (SNB-75) | GI50 (T47D) | GI50 (U-251) | GI50 (UACC-257)
1 | NS(=O)(=O)c1ccc(NC(=O)N/N=C/c2ccccc2[N+](=O)[O-])cc1 | 66.7 µM (inactive) | 25.9 µM (inactive) | 35 µM | 46.1 µM (inactive) | 31.2 µM (inactive) | 44.7 µM (inactive) | 19.4 µM (inactive) | 39.8 µM (inactive) | 41.6 µM (inactive) | 33.3 µM (inactive) | 37.7 µM (inactive) | 35.6 µM (inactive) | 30.3 µM (inactive) | 65.5 µM (inactive) | 45.5 µM (inactive) | 32.7 µM (inactive) | > 100 µM (inactive) | 57.4 µM (inactive) | 43.1 µM (inactive) | 79.4 µM (inactive)
2 | COc1cc2c(cc1OC)[C@@](C)(C(O)C(O)C(C)(C)O)NCC2 (stereo not given in full) | > 100 µM (inactive) | > 100 µM (inactive) | > 100 µM | > 100 µM (inactive) | > 100 µM (inactive) | > 100 µM (inactive) | > 100 µM (inactive) | > 100 µM (inactive) | > 100 µM (inactive) | > 100 µM (inactive) | > 100 µM (inactive) | > 100 µM (inactive) | > 100 µM (inactive) | > 100 µM (inactive) | > 100 µM (inactive) | > 100 µM (inactive) | > 100 µM (inactive) | > 100 µM (inactive) | > 100 µM (inactive) | > 100 µM (inactive)
3 | COC(=O)[C@H]1[C@@H](O)[C@@]2(O)c3c(OC)cc(OC)cc3O[C@@]2(c2ccc3c(c2)OCO3)[C@@H]1c1ccccc1 | < 0.005 µM (active) | 0.00607 µM (active) | < 0.005 µM | 0.00629 µM (active) | 0.00518 µM (active) | 0.00525 µM (active) | 0.00513 µM (active) | < 0.005 µM (active) | 0.00617 µM (active) | 0.00893 µM (active) | 0.0253 µM (active) | 0.0113 µM (active) | < 0.005 µM (active) | 0.00757 µM (active) | 0.00539 µM (active) | 0.0076 µM (active) | 0.0146 µM (active) | 0.00516 µM (active) | 0.00706 µM (active) | 0.00826 µM (active)
4 | Cc1cccc(/C=N/NC(=S)NC(C)(C)C)n1 | 35.6 µM (inactive) | 1.64 µM (inactive) | 24.8 µM | 85.5 µM (inactive) | 66.7 µM (inactive) | 66.5 µM (inactive) | > 100 µM (inactive) | 4.72 µM (inactive) | > 100 µM (inactive) | 33.7 µM (inactive) | 50.8 µM (inactive) | 23.7 µM (inactive) | 32.9 µM (inactive) | 56.1 µM (inactive) | > 100 µM (inactive) | > 100 µM (inactive) | > 100 µM (inactive) | 6.24 µM (inactive) | 93.3 µM (inactive) | > 100 µM (inactive)
5 | CC1(C)CC[C@]2(C(=O)O)[C@H](O)C[C@]3(C)C(=CC[C@@H]4[C@@]5(C)CC[C@H](OC6OC(C(=O)O)C(O)C(O)C6O)C(C)(C)[C@@H]5CC[C@]43C)[C@@H]2C1 (stereo not given in full) | 40.4 µM (inactive) | 36.9 µM (inactive) | 58.2 µM | 22.6 µM (inactive) | > 100 µM (inactive) | 64.3 µM (inactive) | > 100 µM (inactive) | > 100 µM (inactive) | > 100 µM (inactive) | > 100 µM (inactive) | 65.6 µM (inactive) | > 100 µM (inactive) | > 100 µM (inactive) | > 100 µM (inactive) | > 100 µM (inactive) | 27.1 µM (inactive) | 46.7 µM (inactive) | > 100 µM (inactive) | 41 µM (inactive) | > 100 µM (inactive)
6 | O=C(O)c1ccccc1CC(Cc1ccccc1)C(=O)O (stereo not given) | > 100 µM (inactive) | > 100 µM (inactive) | > 100 µM | > 100 µM (inactive) | > 100 µM (inactive) | > 100 µM (inactive) | > 100 µM (inactive) | > 100 µM (inactive) | > 100 µM (inactive) | > 100 µM (inactive) | > 100 µM (inactive) | > 100 µM (inactive) | > 100 µM (inactive) | > 100 µM (inactive) | > 100 µM (inactive) | > 100 µM (inactive) | > 100 µM (inactive) | > 100 µM (inactive) | > 100 µM (inactive) | > 100 µM (inactive)
7 | CCCCC(=O)Oc1ccc(CC(NC(=O)OC(C)(C)C)C(=O)NC(C)C(=O)NC(Cc2ccccc2)C(=O)NCC(N)=O)cc1 (stereo not given) (Boc-Y(Pentanoyl)AFG-NH2; configuration not given here) | > 100 µM (inactive) | 40.6 µM (inactive) | > 100 µM | 26.4 µM (inactive) | 19.7 µM (inactive) | 16.1 µM (inactive) | 25.9 µM (inactive) | 24.3 µM (inactive) | 41 µM (inactive) | > 100 µM (inactive) | 16.8 µM (inactive) | 43.9 µM (inactive) | 21.2 µM (inactive) | 70 µM (inactive) | 32.6 µM (inactive) | 32.3 µM (inactive) | 45.5 µM (inactive) | 27.4 µM (inactive) | 20.5 µM (inactive) | 27.7 µM (inactive)
